Measured values published in US20100086518A1, “TREATMENT OF MELANOMA” (NOVARTIS AG, priority 2007, published 2010).
Like-named read-outs stand apart in the source and are kept apart here.

Assays:
[1] = test system: melanoma-inhibitory activity (MIA) protein; assay: Plasma MIA levels in the CHL-1 study; type: in vivo, Nu/Nu mice; conditions: 30 mg/kg and 80 mg/kg groups
Procedure: MIA ELISA Assay: Equal numbers of human melanoma and colorectal carcinoma cells (˜250,000 cells for each cell line) were seeded onto tissue culture plates and the culture medium for each cell line was collected 48 hr later. Levels of MIA in culture media or plasma were measured by a commercial single-step ELISA kit according to the manufacturer's protocol (Roche Diagnostics Corporation, Indianapolis, Ind.). MIA concentrations in test samples were calculated using a standard curve ranging from 3-37 ng/mL. When the MIA concentration exceeded the highest standard concentration, the samples were diluted 1:5 and assayed again to have the results fall within the linear range of the standard curve. Data were evaluated using the Student t-test (two-tailed distribution, two-sample unequal variance), using P≦0.05 as the level of significance.
In the CHL-1 study, plasma levels of the melanoma marker melanoma-inhibitory activity (MIA) protein secreted by melanoma cells were also measured.

[2] = test system: melanoma tumor cells MEXF 514/12; assay: cells; conditions: Homo sapiens
[3] = test system: human melanoma CHL-1 (wild type B-Raf) xenograft; type: in vivo; conditions: day 25
Procedure: Animals. […] . Mice were implanted with subcutaneous ID chips upon arrival and then underwent at least 7 days of acclimatization prior to the study start. All animal studies were conducted in a facility accredited by the Association for Assessment and Accreditation of Laboratory Animal Care International and in accordance with all guidelines of the Institutional Animal Care and Use Committee and the Guide for The Care and Use of Laboratory Animals (National Research Council).
Cell culture for in vivo efficacy studies. […] The human melanoma cell line CHL-1 was cultured for 6 passages in DMEM media with low glutamine+10% FBS at 37° C. in a humidified atmosphere with 5% CO2.
The day of tumor cell implantation, tumor cells were harvested and resuspended in HBSS (A375 cells) or 50% HBSS+plus 50% Matrigel (CHL-1 cells; Becton Dickenson and Company, Franklin Lakes, N.J.) at 2.5×10^7 cells/mL. Cells were inoculated subcutaneously in the right flank at 5×10^6 cells/200 uL/mouse.
. The group sizes were 9 animals per group (A375 study) or 10 animals per group (CHL-1 study). […] . […] . […] Comparisons of the mean tumor volume in the treatment vs. the vehicle group were evaluated using a Student's two tailed t-test (Excel software).

[4] = test system: melanoma tumor cells MEXF 989/7; assay: cells; conditions: Homo sapiens
[5] = test system: melanoma tumor cells MEXF 672/3; assay: cells; conditions: Homo sapiens
[6] = test system: melanoma tumor cells MEXF 462/6; assay: cells; conditions: Homo sapiens
[7] = test system: other kinases in the PI3K/Akt and MAPK(K) pathways; conditions: read-out: IC50 other kinases in the PI3K/Akt and MAPK(K) pathways; negligible activity
[8] = test system: bFGF-driven neovascularization; assay: In vivo FGF-mediated matrigel angiogenesis assay; conditions: daily for 8 days
[9] = test system: melanoma tumor cells MEXF 1765/3; assay: cells; conditions: Homo sapiens
[10] = test system: BRaf WT CHL-1 melanoma tumors
[11] = test system: melanoma tumor cells MEXF 1341/3; assay: cells; conditions: Homo sapiens
[12] = test system: melanoma tumor cells MEXF 276/7; assay: cells; conditions: Homo sapiens
VEGFR2/Flk1 = biological target: T1, VEGFR2/Flk1 (UniProt P35968); assay: VEGFR2 kinase assay (purified enzyme); type: biochemical; conditions: read-out: IC50 VEGFR flk1
T1 construct: other: purified enzyme

[13] = Cmpd 1 30 mg/kg qd, carboplatin 50 mg/kg + paclitaxel 25 mg/kg 1x/wk

Question: How did the “plasma MIA levels” value ([1]; day 8, vehicle […]) turn out when CN1CCN(c2ccc3nc(-c4c(N)c5c(F)cccc5[nH]c4=O)[nH]c3c2)CC1 [Compound 1, 4-amino-5-fluoro-3-[6-(4-methylpiperazin-1-yl)-1H-benzimidazol-2-yl]-1H-quinolin-2-one] was run?
Answer: undetectable

Question: What about the “plasma MIA levels” value ([1]; day 22) of the same compound?
Answer: undetectable

Question: And the IC50 ([2]; MEXF514, read-out: IC50 clonogenic, MEXF 514/12)?
Answer: 1050 nM

Question: What about the EC50 ([2]; MEXF514, read-out: relative EC50 soft agar clonogenic, 514/12) of the same compound?
Answer: 1050 nM

Question: And the “tumor growth inhibition (TGI)” value ([3]; 10 mpk p.o. daily)?
Answer: 64%

Question: What about the “tumor growth inhibition (TGI)” value ([3]; 30 mpk p.o. daily) of the same compound?
Answer: 73%

Question: What about the “tumor growth inhibition (TGI)” value ([3]; 60 mpk p.o. daily) of the same compound?
Answer: 89%

Question: And the “tumor growth inhibition (TGI)” value ([3]; 80 mpk p.o. daily)?
Answer: 87%

Question: What about the IC50 ([4]; MEXF 989, read-out: IC50 clonogenic, MEXF 989/7) of the same compound?
Answer: 2540 nM

Question: What about the EC50 ([4]; MEXF 989, read-out: relative EC50 soft agar clonogenic, 989/7) of the same compound?
Answer: 2540 nM

Question: What about the IC50 ([5]; read-out: IC50 clonogenic, MEXF 672/3) of the same compound?
Answer: 1670 nM

Question: And the EC50 ([5]; read-out: relative EC50 soft agar clonogenic, 672/3)?
Answer: 1670 nM

Question: And the IC50 ([6]; read-out: IC50 clonogenic, MEXF 462/6)?
Answer: 700 nM

Question: And the EC50 ([6]; read-out: relative EC50 soft agar clonogenic, 462/6)?
Answer: 700 nM

Question: What about the IC50 [7] of the same compound?
Answer: > 10000 nM

Question: And the “hemoglobin level in Matrigel plugs versus unsupplemented Matrigel” value ([8]; all doses >10 mg/kg)?
Answer: less than the basal hemoglobin level

Question: And the “IC50 of inhibition of bFGF-driven neovascularization” value ([8]; oral, 3-100 mg/kg, hemoglobin in Matrigel plugs)?
Answer: 3 mg/kg

Question: What about the IC50 ([9]; read-out: IC50 clonogenic, MEXF 1765/3) of the same compound?
Answer: 2580 nM

Question: And the EC50 ([9]; read-out: relative EC50 soft agar clonogenic, 1765/3)?
Answer: 2580 nM

Question: What about the “Clinical Observations” value ([10]; BAR = bright, alert, responsive, BWL = body weight loss) of the same compound?
Answer: BAR

Question: And the “% Mean change in BW of initial” value [10, 13]?
Answer: 4.3%

Question: And the “Max % TGI; day 14” value [10, 13]?
Answer: 52.51%

Question: And the “Mean of Tv on day 14” value ([10]; Cmpd 1 30 mg/kg qd, carboplatin 50 mg/kg + paclitaxel 25 mg/kg 1x/wk, tumor volume in mm^3)?
Answer: 884

Question: What about the “T/C Observed (O)” value ([10]; day 14) of the same compound?
Answer: 0.56

Question: And the IC50 ([11]; read-out: IC50 clonogenic, MEXF 1341/3)?
Answer: 2240 nM

Question: What about the EC50 ([11]; read-out: relative EC50 soft agar clonogenic, 1341/3) of the same compound?
Answer: 2240 nM

Question: What about the IC50 ([12]; read-out: IC50 clonogenic, MEXF 276/7) of the same compound?
Answer: 1140 nM

Question: And the EC50 ([12]; read-out: relative EC50 soft agar clonogenic, 276/7)?
Answer: 1140 nM
